According to article PMC12486440, “Design, synthesis, and in silico studies of new benzofuran–pyrazole hybrids as multi-kinase inhibitors with potential antiproliferative activity” (RSC Advances, 2025):

Columns and labels:
SR = conditions: single dose 10 μM; leukemia
SN12C = conditions: single dose 10 μM; renal carcinoma
KM12 = conditions: single dose 10 μM; colon cancer
SF-295 = conditions: single dose 10 μM; CNS cancer
NCI-H522 = conditions: single dose 10 μM; non-small lung carcinoma
786–0 = conditions: single dose 10 μM; renal carcinoma
K-562 = conditions: single dose 10 μM; leukemia
HL-60(TB) = conditions: single dose 10 μM; leukemia
MOLT-4 = conditions: single dose 10 μM; leukemia
UACC-257 = conditions: single dose 10 μM; melanoma
SF-539 = conditions: single dose 10 μM; CNS cancer
SNB-75 = conditions: single dose 10 μM; CNS cancer
[1] = test system: NCI 60 cancer cell line panel; assay: NCI 60 full panel summary; conditions: single dose 10 μM; mean over the NCI 60 panel
CAKI-1 = conditions: single dose 10 μM; renal carcinoma
SW-620 = conditions: single dose 10 μM; colon cancer
UACC-62 = conditions: single dose 10 μM; melanoma
OVCAR-5 = conditions: single dose 10 μM; ovarian carcinoma
A498 = conditions: single dose 10 μM; renal carcinoma
MALME-3M = conditions: single dose 10 μM; melanoma
A549/ATCC = conditions: single dose 10 μM; non-small lung carcinoma
SF-268 = conditions: single dose 10 μM; CNS cancer
OVCAR-4 = conditions: single dose 10 μM; ovarian carcinoma
MCF7 = conditions: single dose 10 μM; breast carcinoma
TK-10 = conditions: single dose 10 μM; renal carcinoma
NCI-H23 = conditions: single dose 10 μM; non-small lung carcinoma
UO-31 = conditions: single dose 10 μM; renal carcinoma
EKVX = conditions: single dose 10 μM; non-small lung carcinoma
MDA-MB-435 = conditions: single dose 10 μM; melanoma
SNB-19 = conditions: single dose 10 μM; CNS cancer
MDA-MB-468 = conditions: single dose 10 μM; breast carcinoma
M14 = conditions: single dose 10 μM; melanoma
SK-OV-3 = conditions: single dose 10 μM; ovarian carcinoma
T-47D = conditions: single dose 10 μM; breast carcinoma
PC-3 = conditions: single dose 10 μM; prostate carcinoma
OVCAR-8 = conditions: single dose 10 μM; ovarian carcinoma
ACHN = conditions: single dose 10 μM; renal carcinoma
HCT-15 = conditions: single dose 10 μM; colon cancer
BT-549 = conditions: single dose 10 μM; breast carcinoma
HOP-92 = conditions: single dose 10 μM; non-small lung carcinoma
RPMI-8226 = conditions: single dose 10 μM; leukemia
NCI-H226 = conditions: single dose 10 μM; non-small lung carcinoma
HOP-62 = conditions: single dose 10 μM; non-small lung carcinoma
CCRF-CEM = conditions: single dose 10 μM; leukemia
HT29 = conditions: single dose 10 μM; colon cancer
SK-MEL-5 = conditions: single dose 10 μM; melanoma
RXF 393 = conditions: single dose 10 μM; renal carcinoma
SK-MEL-28 = conditions: single dose 10 μM; melanoma

Compound | GI% (SR) [%] | GI% (SN12C) [%] | GI% (SF-295) [%] | GI% (NCI-H522) [%] | GI% (786–0) [%] | GI% (K-562) [%] | GI% (HL-60(TB)) [%] | GI% (MOLT-4) [%] | GI% (SF-539) [%] | Mean GI% [1] [%] | GI% (CAKI-1) [%] | GI% (UACC-62) [%] | GI% (A498) [%] | GI% (MALME-3M) [%] | GI% (MCF7) [%] | GI% (TK-10) [%] | GI% (UO-31) [%] | GI% (EKVX) [%] | GI% (SNB-19) [%] | GI% (M14) [%] | further results
3-(5-(Benzofuran-2-yl)-1-phenyl-1H-pyrazol-3-yl)-1-phenylprop-2-en-1-one [2a] | 17.52 | 0.82 | 5.84 | 3.81 | 1.14 | 5.10 | 7.64 | 3.22 | 0.23 | 0.37 | 15.01 | 2.28 | 1.16 | 1.12 | 5.38 | 5.20 | 7.39 | 0.89 | 4.72 | 0.52 | GI% (KM12): 1.62%; GI% (UACC-257): 5.50%; GI% (SNB-75): 19.77%; GI% (SW-620): 0.70%; GI% (OVCAR-5): 0.37%; GI% (A549/ATCC): 4.22%; GI% (SF-268): 4.98%; GI% (OVCAR-4): 1.64%; GI% (NCI-H23): 1.16%; GI% (MDA-MB-435): 0.51%; GI% (MDA-MB-468): 0.19%
COc1ccc(C2=NNC(c3cn(-c4ccccc4)nc3-c3cc4ccccc4o3)C2)cc1 (centres unmarked) [3b, 3-(Benzofuran-2-yl)-4-(3-(4-methoxyphenyl)-4,5-dihydro-1H-pyrazol-5-yl)-1-phenyl-1H-pyrazole] | 7.24 |  | 1.43 | 0.82 |  | 7.50 | 2.83 | 8.04 | 4.09 | 0.8 | 17.83 | 8.16 | 2.47 | 4.88 | 2.03 | 3.17 | 26.14 | 0.52 | 2.46 | 4.94 | GI% (SK-OV-3): 6.45%; GI% (T-47D): 2.60%; GI% (SNB-75): 0.28%; GI% (PC-3): 12.08%; GI% (OVCAR-8): 1.00%; GI% (ACHN): 5.79%; GI% (HCT-15): 1.12%; GI% (BT-549): 4.37%; GI% (HOP-92): 3.27%; GI% (RPMI-8226): 7.55%; GI% (NCI-H226): 1.48%; GI% (HOP-62): 4.32%; GI% (MDA-MB-468): 7.03%; GI% (CCRF-CEM): 17.25%
CC(=O)N1N=C(c2nc3ccccc3[nH]2)CC1c1cn(-c2ccccc2)nc1-c1cc2ccccc2o1 (centres unmarked) [4d, 1-(5-(3-(Benzofuran-2-yl)-1-phenyl-1H-pyrazol-4-yl)-3-(1H-benzo[d]imidazol-2-yl)-4,5-dihydropyrazol-1-yl)ethanone] | 18.72 | 6.54 | 9.71 | 1.70 | 4.06 | 2.81 | 5.44 | 5.60 | 0.68 | 1.26 | 7.51 | 2.82 | 5.12 | 5.76 | 5.40 | 15.06 | 13.92 | 5.61 | 4.75 | 2.74 | GI% (T-47D): 18.84%; GI% (HT29): 0.62%; GI% (UACC-257): 1.22%; GI% (SK-MEL-5): 0.87%; GI% (OVCAR-5): 6.06%; GI% (PC-3): 5.99%; GI% (SF-268): 1.38%; GI% (HCT-15): 1.38%; GI% (RXF 393): 2.67%; GI% (SK-MEL-28): 1.16%; GI% (BT-549): 9.21%; GI% (HOP-92): 8.82%; GI% (RPMI-8226): 4.74%; GI% (NCI-H226): 3.03%; GI% (CCRF-CEM): 10.91%
